Assays:
Assay type in all cases: biochemical
Jak2 (a.a. 828-1132) = Jak2 (a.a. 828-1132) (Homo sapiens (Human), UniProt O60674); assay: In vitro JAK kinase assay (HTRF, phosphorylation of a biotinylated peptide), JAK2; details: measured at 1 mM ATP
In short: (§1)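 N-terminally His-tagged catalytic domains, baculovirus-expressed in insect cells and purified, were used as enzyme. Reactions ran 1 hr at room temperature and were stopped with a mix of 45 mM EDTA, 300 nM SA-APC and 6 nM Eu-Py20. The HTRF signal was read after 40 min of antibody binding.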

[1] = target: human JAK1 (a.a. 837-1142); assay: In vitro JAK kinase assay (HTRF, phosphorylation of a biotinylated peptide), JAK1; details: ratio of JAK2 IC50 to JAK1 IC50, measured at 1 mM ATP
In short: as §1

[2] = target: human JAK1 (a.a. 837-1142) (Homo sapiens, UniProt P23458); assay: as above; details: measured at 1 mM ATP
In short: as §1

Jak2 (a.a. 828-1132), sequence (O60674 828-1132): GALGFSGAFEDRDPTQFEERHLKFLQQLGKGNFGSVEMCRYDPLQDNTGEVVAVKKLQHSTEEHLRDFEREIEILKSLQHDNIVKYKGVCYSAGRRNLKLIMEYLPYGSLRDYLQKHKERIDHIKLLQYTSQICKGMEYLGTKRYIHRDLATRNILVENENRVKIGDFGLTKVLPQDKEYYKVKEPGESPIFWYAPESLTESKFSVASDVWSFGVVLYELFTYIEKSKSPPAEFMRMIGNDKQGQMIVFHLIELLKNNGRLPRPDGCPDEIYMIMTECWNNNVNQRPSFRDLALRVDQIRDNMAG

| Structure (SMILES) | IC50 (Jak2 (a.a. 828-1132)) | IC50 Ratio JAK2/JAK1 [1] | IC50 [2] |
| --- | --- | --- | --- |
| N#CCC1(n2cc(-c3ncnc4[nH]ccc34)cn2)CN(C2CCN(C(=O)c3ccc(-c4ccc(F)c(F)c4)c(F)c3)CC2)C1 [Example 127, (3-[4-(7H-pyrrolo[2,3-d]pyrimidin-4-yl)-1H-pyrazol-1-yl]-1-{1-[(2,3′,4′-trifluorobiphenyl-4-yl)carbonyl]piperidin-4-yl}azetidin-3-yl)acetonitrile] | 0.01 to 0.05 µM | 4.3 | 0.005 to 0.02 µM |
| N#CCC1(n2cc(-c3ncnc4[nH]ccc34)cn2)CN(C2CCN(C(=O)Nc3nc4ccccc4s3)CC2)C1 [Example 193, N-1,3-benzothiazol-2-yl-4-{3-(cyanomethyl)-3-[4-(7H-pyrrolo[2,3-d]pyrimidin-4-yl)-1H-pyrazol-1-yl]azetidin-1-yl}piperidine-1-carboxamide] | ≤ 0.01 µM | 0.5 | ≤ 0.005 µM |
| N#CCC1(n2cc(-c3ncnc4[nH]ccc34)cn2)CN(C2CCN(C(=O)c3cc(CO)nc(C(F)(F)F)n3)CC2)C1 [Example 381, {1-(1-{[6-(hydroxymethyl)-2-(trifluoromethyl)pyrimidin-4-yl]carbonyl}piperidin-4-yl)-3-[4-(7H-pyrrolo[2,3-d]pyrimidin-4-yl)-1H-pyrazol-1-yl]azetidin-3-yl}acetonitrile] | 0.01 to 0.05 µM | 20 | ≤ 0.005 µM |
| N#CCC1(n2cc(-c3c(C#N)cnc4[nH]ccc34)cn2)CN(C2CCN(C(=O)c3cc(C(F)(F)F)ncc3Cl)CC2)C1 [Example 341, 4-{1-[1-{1-[5-chloro-2-(trifluoromethyl)isonicotinoyl]piperidin-4-yl}-3-(cyanomethyl)azetidin-3-yl]-1H-pyrazol-4-yl}-1H-pyrrolo[2,3-b]pyridine-5-carbonitrile] | 0.05 to 0.1 µM | 3.2 | 0.005 to 0.02 µM |
| N#CCC1(n2cc(-c3ncnc4[nH]ccc34)cn2)CN(C2CCN(C(=O)Nc3ccc(C(F)(F)F)cc3)CC2)C1 [Example 167, 4-{3-(cyanomethyl)-3-[4-(7H-pyrrolo[2,3-d]pyrimidin-4-yl)-1H-pyrazol-1-yl]azetidin-1-yl}-N-[4-(trifluoromethyl)phenyl]piperidine-1-carboxamide] | ≤ 0.01 µM | 2.0 | ≤ 0.005 µM |
| N#CCC1(n2cc(-c3c(C#N)cnc4[nH]ccc34)cn2)CN(C2CCN(C(=O)c3ccnc(C(F)(F)F)c3F)CC2)C1 [Example 332, 4-[1-(3-(Cyanomethyl)-1-{1-[3-fluoro-2-(trifluoromethyl)isonicotinoyl]piperidin-4-yl}azetidin-3-yl)-1H-pyrazol-4-yl]-1H-pyrrolo[2,3-b]pyridine-5-carbonitrile] | 0.05 to 0.1 µM | 19.3 | ≤ 0.005 µM |
| N#CCC1(n2cc(-c3c(F)cnc4[nH]ccc34)cn2)CN(C2CCN(C(=O)c3ccc(O)cc3F)CC2)C1 [Example 323, {1-[1-(2-fluoro-4-hydroxybenzoyl)piperidin-4-yl]-3-[4-(5-fluoro-1H-pyrrolo[2,3-b]pyridin-4-yl)-1H-pyrazol-1-yl]azetidin-3-yl}acetonitrile] | ≤ 0.01 µM | 5.0 | ≤ 0.005 µM |
| Cc1nc(C(F)(F)F)ccc1NC(=O)N1CCC(N2CC(CC#N)(n3ccc(-c4ncnc5[nH]ccc45)c3)C2)CC1 [Example 285, 4-{3-(cyanomethyl)-3-[3-(7H-pyrrolo[2,3-d]pyrimidin-4-yl)-1H-pyrrol-1-yl]azetidin-1-yl}-N-[2-methyl-6-(trifluoromethyl)pyridin-3-yl]piperidine-1-carboxamide] | 0.01 to 0.05 µM | 5.7 | 0.005 to 0.02 µM |
| Cc1noc(C)c1S(=O)(=O)N1CCC(N2CC(CC#N)(n3cc(-c4ncnc5[nH]ccc45)cn3)C2)CC1 [Example 260, {1-{1-[(3,5-dimethylisoxazol-4-yl)sulfonyl]piperidin-4-yl}-3-[4-(7H-pyrrolo[2,3-d]pyrimidin-4-yl)-1H-pyrazol-1-yl]azetidin-3-yl}acetonitrile] | 0.01 to 0.05 µM | 7.1 | ≤ 0.005 µM |
| N#CCC1(n2cc(-c3ncnc4[nH]ccc34)cn2)CN(C2CCN(C(=O)c3cc(F)cc(C(F)(F)F)c3)CC2)C1 [Example 23, {1-{1-[3-fluoro-5-(trifluoromethyl)benzoyl]piperidin-4-yl}-3-[4-(7H-pyrrolo[2,3-d]pyrimidin-4-yl)-1H-pyrazol-1-yl]azetidin-3-yl}acetonitrile] | 0.01 to 0.05 µM | 6.7 | ≤ 0.005 µM |

Reference: US9999619B2, “Piperidin-4-yl azetidine derivatives as JAK1 inhibitors” (Incyte Corporation, priority 2010, dated 2018)
